Results: patent publication US10913727B2, “Modulators of the integrated stress pathway” (Calico Life Sciences LLC, priority 2016, dated 2021)

System: HEK293T cells carrying the ATF4 luciferase reporter
Test: ATF4-Luc assay, in vitro model of Vanishing Cell White Matter Disease (VWMD)
Format: cell-based
Conditions: Homo sapiens, HEK-293T, 1 μg/mL tunicamycin, 7 hours, One Glo luminescence
Method in brief: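 Reporter cells were stably generated by retroviral transduction and puromycin selection, then seeded at 30,000 cells/well. Next day, cells received 1 μg/mL tunicamycin with 200 nM test compound for 7 h, and luciferase luminescence was read with a one-step reagent. Values reported as EC50.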

| Structure (SMILES) | EC50 [nM] |
| --- | --- |
| Cc1csc(C(=O)NC23CC(NC(=O)COc4ccc(Cl)c(F)c4)(C2)C3)c1 [Compound 875, N-{3-[2-(4-chloro-3-fluorophenoxy)acetamido]bicyclo[1.1.1]pentan-1-yl}-4-methylthiophene-2-carboxamide] | < 50 |
| CC(=O)Nc1sccc1C(=O)NC12CC(NC(=O)COc3ccc(Cl)c(F)c3)(C1)C2 [Compound 876, 2-acetamido-N-{3-[2-(4-chloro-3-fluorophenoxy)acetamido]bicyclo[1.1.1]pentan-1-yl}thiophene-3-carboxamide] | 250 to 1000 |
| Cn1nc(C(=O)NC23CC(NC(=O)COc4ccc(Cl)c(F)c4)(C2)C3)c2c1CCC2 [Compound 877, N-{3-[2-(4-chloro-3-fluorophenoxy)acetamido]bicyclo[1.1.1]pentan-1-yl}-1-methyl-1,4,5,6-tetrahydrocyclopenta[c]pyrazole-3-carboxamide] | > 2000 |
| Cc1nn(C)c2sc(C(=O)NC34CC(NC(=O)COc5ccc(Cl)c(F)c5)(C3)C4)cc12 [Compound 878, N-{3-[2-(4-chloro-3-fluorophenoxy)acetamido]bicyclo[1.1.1]pentan-1-yl}-1,3-dimethyl-1H-thieno[2,3-c]pyrazole-5-carboxamide] | 250 to 1000 |
| Cc1nocc1C(=O)NC12CC(NC(=O)COc3ccc(Cl)c(F)c3)(C1)C2 [Compound 879, N-{3-[2-(4-chloro-3-fluorophenoxy)acetamido]bicyclo[1.1.1]pentan-1-yl}-3-methyl-1,2-oxazole-4-carboxamide] | > 2000 |
| O=C(COc1ccc(Cl)c(F)c1)NC12CC(NC(=O)c3noc4c3CCCC4)(C1)C2 [Compound 880, N-{3-[2-(4-chloro-3-fluorophenoxy)acetamido]bicyclo[1.1.1]pentan-1-yl}-4,5,6,7-tetrahydro-1,2-benzoxazole-3-carboxamide] | > 2000 |
| Cc1oc(C2CC2)cc1C(=O)NC12CC(NC(=O)COc3ccc(Cl)c(F)c3)(C1)C2 [Compound 881, N-{3-[2-(4-chloro-3-fluorophenoxy)acetamido]bicyclo[1.1.1]pentan-1-yl}-5-cyclopropyl-2-methylfuran-3-carboxamide] | > 2000 |
| Cc1c(C(=O)NC23CC(NC(=O)COc4ccc(Cl)c(F)c4)(C2)C3)cnn1C [Compound 882, N-{3-[2-(4-chloro-3-fluorophenoxy)acetamido]bicyclo[1.1.1]pentan-1-yl}-1,5-dimethyl-1H-pyrazole-4-carboxamide] | > 2000 |
| Cc1nccn1-c1ccccc1C(=O)NC12CC(NC(=O)COc3ccc(Cl)c(F)c3)(C1)C2 [Compound 883, N-{3-[2-(4-chloro-3-fluorophenoxy)acetamido]bicyclo[1.1.1]pentan-1-yl}-2-(2-methyl-1H-imidazol-1-yl)benzamide] | > 2000 |
| CC(=O)Nc1cccc(C(=O)NC23CC(NC(=O)COc4ccc(Cl)c(F)c4)(C2)C3)n1 [Compound 884, 6-acetamido-N-{3-[2-(4-chloro-3-fluorophenoxy)acetamido]bicyclo[1.1.1]pentan-1-yl}pyridine-2-carboxamide] | 250 to 1000 |
| N#Cc1ccc(C(=O)NC23CC(NC(=O)COc4ccc(Cl)c(F)c4)(C2)C3)s1 [Compound 885, N-{3-[2-(4-chloro-3-fluorophenoxy)acetamido]bicyclo[1.1.1]pentan-1-yl}-5-cyanothiophene-2-carboxamide] | > 2000 |
| O=C(COc1ccc(Cl)c(F)c1)NC12CC(NC(=O)c3cc4nccnc4s3)(C1)C2 [Compound 886, N-{3-[2-(4-chloro-3-fluorophenoxy)acetamido]bicyclo[1.1.1]pentan-1-yl}thieno[2,3-b]pyrazine-6-carboxamide] | 250 to 1000 |
| COCC(=O)Nc1ccccc1C(=O)NC12CC(NC(=O)COc3ccc(Cl)c(F)c3)(C1)C2 [Compound 887, N-{3-[2-(4-chloro-3-fluorophenoxy)acetamido]bicyclo[1.1.1]pentan-1-yl}-2-(2-methoxyacetamido)benzamide] | 250 to 1000 |
| O=C(COc1ccc(Cl)c(F)c1)NC12CC(NC(=O)c3cnc(C4CC4)nc3)(C1)C2 [Compound 888, N-{3-[2-(4-chloro-3-fluorophenoxy)acetamido]bicyclo[1.1.1]pentan-1-yl}-2-cyclopropylpyrimidine-5-carboxamide] | 50 to 250 |
| Cc1cc(C)nc(C(=O)NC23CC(NC(=O)COc4ccc(Cl)c(F)c4)(C2)C3)c1 [Compound 889, N-{3-[2-(4-chloro-3-fluorophenoxy)acetamido]bicyclo[1.1.1]pentan-1-yl}-4,6-dimethylpyridine-2-carboxamide] | 1000 to 2000 |
| O=C(COc1ccc(Cl)c(F)c1)NC12CC(NC(=O)c3ccccc3Cn3cccn3)(C1)C2 [Compound 890, N-{3-[2-(4-chloro-3-fluorophenoxy)acetamido]bicyclo[1.1.1]pentan-1-yl}-2-[(1H-pyrazol-1-yl)methyl]benzamide] | > 2000 |
| Cc1cccc(C(=O)NC23CC(NC(=O)COc4ccc(Cl)c(F)c4)(C2)C3)n1 [Compound 891, N-{3-[2-(4-chloro-3-fluorophenoxy)acetamido]bicyclo[1.1.1]pentan-1-yl}-6-methylpyridine-2-carboxamide] | 50 to 250 |

| Structure (SMILES) | EC50 [nM] |
| --- | --- |
| O=C(COc1ccc(Cl)c(F)c1)NC12CC(NC(=O)c3cccc(Cn4cncn4)c3)(C1)C2 [Compound 892, N-{3-[2-(4-chloro-3-fluorophenoxy)acetamido]bicyclo[1.1.1]pentan-1-yl}-3-[(1H-1,2,4-triazol-1-yl)methyl]benzamide] | 250 to 1000 |
| CC(C)c1nnsc1C(=O)NC12CC(NC(=O)COc3ccc(Cl)c(F)c3)(C1)C2 [Compound 893, N-{3-[2-(4-chloro-3-fluorophenoxy)acetamido]bicyclo[1.1.1]pentan-1-yl}-4-(propan-2-yl)-1,2,3-thiadiazole-5-carboxamide] | 1000 to 2000 |
| O=C(COc1ccc(Cl)c(F)c1)NC12CC(NC(=O)c3cncc(N4CCOCC4)n3)(C1)C2 [Compound 894, N-{3-[2-(4-chloro-3-fluorophenoxy)acetamido]bicyclo[1.1.1]pentan-1-yl}-6-(morpholin-4-yl)pyrazine-2-carboxamide] | 250 to 1000 |
| O=C(COc1ccc(Cl)c(F)c1)NC12CC(NC(=O)c3cnsn3)(C1)C2 [Compound 895, N-{3-[2-(4-chloro-3-fluorophenoxy)acetamido]bicyclo[1.1.1]pentan-1-yl}-1,2,5-thiadiazole-3-carboxamide] | 250 to 1000 |
| Cn1nc2ccccc2c1C(=O)NC12CC(NC(=O)COc3ccc(Cl)c(F)c3)(C1)C2 [Compound 896, N-{3-[2-(4-chloro-3-fluorophenoxy)acetamido]bicyclo[1.1.1]pentan-1-yl}-2-methyl-2H-indazole-3-carboxamide] | 1000 to 2000 |
| CSc1sc(C(=O)NC23CC(NC(=O)COc4ccc(Cl)c(F)c4)(C2)C3)cc1C#N [Compound 897, N-{3-[2-(4-chloro-3-fluorophenoxy)acetamido]bicyclo[1.1.1]pentan-1-yl}-4-cyano-5-(methylsulfanyl)thiophene-2-carboxamide] | > 2000 |
| CCSc1cncc(C(=O)NC23CC(NC(=O)COc4ccc(Cl)c(F)c4)(C2)C3)n1 [Compound 898, N-{3-[2-(4-chloro-3-fluorophenoxy)acetamido]bicyclo[1.1.1]pentan-1-yl}-6-(ethylsulfanyl)pyrazine-2-carboxamide] | 50 to 250 |
| O=C(COc1ccc(Cl)c(F)c1)NC12CC(NC(=O)c3ncccc3Cl)(C1)C2 [Compound 899, 3-chloro-N-{3-[2-(4-chloro-3-fluorophenoxy)acetamido]bicyclo[1.1.1]pentan-1-yl}pyridine-2-carboxamide] | 250 to 1000 |
| O=C(COc1ccc(Cl)c(F)c1)NC12CC(NC(=O)c3cnoc3C3CC3)(C1)C2 [Compound 900, N-{3-[2-(4-chloro-3-fluorophenoxy)acetamido]bicyclo[1.1.1]pentan-1-yl}-5-cyclopropyl-1,2-oxazole-4-carboxamide] | > 2000 |
| Cc1onc(C(=O)NC23CC(NC(=O)COc4ccc(Cl)c(F)c4)(C2)C3)c1C [Compound 901, N-{3-[2-(4-chloro-3-fluorophenoxy)acetamido]bicyclo[1.1.1]pentan-1-yl}-4,5-dimethyl-1,2-oxazole-3-carboxamide] | > 2000 |
| O=C(COc1ccc(Cl)c(F)c1)NC12CC(NC(=O)c3cccc(-n4cnnc4)c3)(C1)C2 [Compound 902, N-{3-[2-(4-chloro-3-fluorophenoxy)acetamido]bicyclo[1.1.1]pentan-1-yl}-3-(4H-1,2,4-triazol-4-yl)benzamide] | > 2000 |
| O=C(COc1ccc(Cl)c(F)c1)NC12CC(NC(=O)c3cnn4c3CCCC4)(C1)C2 [Compound 903, N-{3-[2-(4-chloro-3-fluorophenoxy)acetamido]bicyclo[1.1.1]pentan-1-yl}-4,5,6,7-tetrahydropyrazolo[1,5-a]pyridine-3-carboxamide] | > 2000 |
| Cn1ccnc1C(=O)NC12CC(NC(=O)COc3ccc(Cl)c(F)c3)(C1)C2 [Compound 904, N-{3-[2-(4-chloro-3-fluorophenoxy)acetamido]bicyclo[1.1.1]pentan-1-yl}-1-methyl-1H-imidazole-2-carboxamide] | > 2000 |
| NS(=O)(=O)c1ccc(C(=O)NC23CC(NC(=O)COc4ccc(Cl)c(F)c4)(C2)C3)o1 [Compound 905, N-{3-[2-(4-chloro-3-fluorophenoxy)acetamido]bicyclo[1.1.1]pentan-1-yl}-5-sulfamoylfuran-2-carboxamide] | > 2000 |
| CCc1nc(C)c(C(=O)NC23CC(NC(=O)COc4ccc(Cl)c(F)c4)(C2)C3)o1 [Compound 906, N-{3-[2-(4-chloro-3-fluorophenoxy)acetamido]bicyclo[1.1.1]pentan-1-yl}-2-ethyl-4-methyl-1,3-oxazole-5-carboxamide] | 250 to 1000 |
| O=C(COc1ccc(Cl)c(F)c1)NC12CC(NC(=O)c3nc4ccccc4s3)(C1)C2 [Compound 907, N-{3-[2-(4-chloro-3-fluorophenoxy)acetamido]bicyclo[1.1.1]pentan-1-yl}-1,3-benzothiazole-2-carboxamide] | 50 to 250 |
| Cc1oncc1C(=O)NC12CC(NC(=O)COc3ccc(Cl)c(F)c3)(C1)C2 [Compound 908, N-{3-[2-(4-chloro-3-fluorophenoxy)acetamido]bicyclo[1.1.1]pentan-1-yl}-5-methyl-1,2-oxazole-4-carboxamide] | > 2000 |
